Test results as given in DBAASP.
Converted amounts (≈) assume the structure as drawn. “And” between values parts separate entries of the source, which are not always exact repeats. Identical values can stand only once.

Experiments:
Test in all cases: ≥ marks a high value that may be exact or a test limit, other limits are often not marked, values filed in µg/mL are converted to µM
[1] = system: Burkholderia cepacia ATCC 25416
[2] = system: Escherichia coli UB1005
[3] = system: Pseudomonas aeruginosa ATCC 27853
[4] = system: Pseudomonas aeruginosa H374
[5] = system: Pseudomonas aeruginosa H547
[6] = system: Pseudomonas aeruginosa H744
[7] = system: Pseudomonas aeruginosa K799
[8] = system: Pseudomonas aeruginosa Z61
[9] = system: Salmonella enterica subsp. enterica serovar Typhimurium ATCC 14028s
[10] = system: Bacillus subtilis KCCM 11495
[11] = system: Escherichia coli KCCM 11569
[12] = system: Bacillus megaterium Bm11
[13] = system: Candida albicans
[14] = system: Candida parapsilosis
[15] = system: Candida tropicalis
[16] = system: Cryptococcus neoformans ATCC 52817
[17] = system: Cryptococcus neoformans ATCC 90113
[18] = system: Cryptococcus neoformans
[19] = system: Escherichia coli ATCC 25922
[20] = system: Escherichia coli ML-35
[21] = system: Escherichia coli
[22] = system: Klebsiella pneumoniae ATCC 13883
[23] = system: Klebsiella pneumoniae
[24] = system: Pseudomonas aeruginosa ATCC 10145
[25] = system: Pseudomonas aeruginosa
[26] = system: Salmonella enterica serovar Typhimurium
[27] = system: Salmonella enterica subsp. enterica serovar Enteritidis
[28] = system: Salmonella enterica subsp. enterica serovar Typhimurium ATCC 14028
[29] = system: Serratia marcescens ATCC 8100
[30] = system: Staphylococcus aureus ATCC 25923
[31] = system: Staphylococcus aureus ATCC 29213
[32] = system: Staphylococcus epidermidis ATCC 12228
[33] = system: Streptococcus equinus
[34] = system: Pseudomonas aeruginosa H1001
[35] = system: Bacillus cereus
[36] = system: Bacillus subtilis ATCC 6633
[37] = system: Candida albicans ATCC 36232
[38] = system: Escherichia coli AS1.349
[39] = system: Escherichia coli KCTC 2433
[40] = system: Klebsiella pneumoniae ATCC 10031
[41] = system: Lactococcus lactis
[42] = system: Micrococcus luteus ATCC 4698
[43] = system: Proteus mirabilis ATCC 25933
[44] = system: Pseudomonas aeruginosa ATCC 9027
[45] = system: Shigella dysenteriae ATCC 9752
[46] = system: Staphylococcus aureus AS1.72
[47] = system: Staphylococcus aureus KCTC 3881

CC[C@H](C)[C@H](NC(=O)[C@H](CC(C)C)NC(=O)[C@@H]1CCCN1C(=O)[C@H](CCCCN)NC(=O)[C@H](C)NC(=O)[C@@H](NC(=O)[C@@H](NC(=O)[C@@H](NC(=O)[C@@H](NC(=O)[C@H](CCCCN)NC(=O)[C@H](CCCCN)NC(=O)[C@H](CC(C)C)NC(=O)[C@@H](NC(=O)[C@H](CO)NC(=O)[C@@H](NC(=O)[C@H](CC(C)C)NC(=O)[C@H](CCCCN)NC(=O)[C@H](CCCCN)NC(=O)[C@@H](NC(=O)[C@H](Cc1ccccc1)NC(=O)[C@H](CO)NC(=O)[C@H](CCCCN)NC(=O)[C@H](Cc1c[nH]c2ccccc12)NC(=O)[C@@H](N)CCCCN)[C@@H](C)CC)[C@@H](C)O)C(C)C)C(C)C)C(C)C)[C@@H](C)O)[C@@H](C)O)C(=O)N[C@@H](CO)C(=O)N[C@@H](CO)C(=O)O [KWKSFIKKLTSVLKKVVTTAKPLISS] was tested, and the MIC [1] was 21.8 µM (≈ 64 µg/mL), the MIC [2] was 0.682 µM (≈ 2 µg/mL) and the MIC [3] was 4 µM (≈ 11.7 µg/mL). It also gave an MIC [4] of 2.73 µM (≈ 8 µg/mL), an MIC [5] of 2.73 µM (≈ 8 µg/mL) and an MIC [6] of 1.36 µM (≈ 4 µg/mL). For the same molecule, the MIC [7] was 1.71 µM (≈ 5 µg/mL), the MIC [8] was 1.02 µM (≈ 3 µg/mL) and the MIC [9] was 1.02 µM (≈ 3 µg/mL).

For CC(C)C[C@H](NC(=O)CNC(=O)[C@H](Cc1cnc[nH]1)NC(=O)[C@H](Cc1cnc[nH]1)NC(=O)[C@H](CC(C)C)NC(=O)[C@H](CC(C)C)NC(=O)[C@H](C)NC(=O)[C@H](CC(N)=O)NC(=O)[C@H](CC(C)C)NC(=O)[C@@H](N)Cc1c[nH]c2ccccc12)C(=O)N[C@@H](CC(N)=O)C(=O)N[C@@H](CS)C(N)=O [WLNALLHHGLNC], the MIC [10] was ≥ 46 µM and the MIC [11] was ≥ 46 µM.

With CC[C@H](C)[C@H](NC(=O)[C@H](CCCCN)NC(=O)[C@H](CCCN=C(N)N)NC(=O)[C@H](CCCN=C(N)N)NC(=O)[C@@H]1CCCN1C(=O)[C@H](CC(C)C)NC(=O)[C@H](CC(C)C)NC(=O)[C@@H](NC(=O)[C@H](CCCN=C(N)N)NC(=O)[C@H](CCSC)NC(=O)[C@H](CCCN=C(N)N)NC(=O)[C@H](CC(C)C)NC(=O)[C@H](Cc1ccccc1)NC(=O)[C@H](CO)NC(=O)[C@H](CCCCN)NC(=O)[C@H](C)NC(=O)[C@H](CC(C)C)NC(=O)[C@H](CCCN=C(N)N)NC(=O)CNC(=O)[C@H](Cc1ccccc1)NC(=O)[C@H](CCCN=C(N)N)NC(=O)[C@@H](N)CCCCN)[C@@H](C)CC)C(=O)N[C@@H](CC(C)C)C(=O)N[C@@H](CC(C)C)C(=O)N[C@@H](C)C(=O)N[C@@H](CO)C(=O)O [KRFGRLAKSFLRMRILLPRRKILLAS] the MIC [12] was 3.98 µM (≈ 12.5 µg/mL), the MIC [13] was > 31.8 µM and the MIC [14] was 31.8 µM (≈ 100 µg/mL). The MIC [15] was 31.8 µM (≈ 100 µg/mL), the MIC [16] was 3.98 µM and 1.91 µM and the MIC [17] was 3.98 µM and 1.91 µM. For the same molecule, the MIC [18] was 1.91 µM and 3.98 µM, the MIC [19] was 1.1 µM (≈ 3.46 µg/mL) and the MIC [20] was 0.955 µM (≈ 3 µg/mL). The MIC [21] was 1.27 µM (≈ 4 µg/mL), the MIC [22] was 0.78 µM (≈ 2.45 µg/mL) and the MIC [23] was 1.91 µM and 0.9 µM. For the same molecule, the MIC [24] was 1.27 µM (≈ 4 µg/mL), the MIC [3] was 3.98 µM (≈ 12.5 µg/mL) and the MIC [25] was 0.9 µM (≈ 2.83 µg/mL). The MIC [26] was 0.9 µM (≈ 2.83 µg/mL), the MIC [27] was 1.91 µM (≈ 6 µg/mL) and the MIC [28] was 1.91 µM and 0.637 µM. For the same molecule, the MIC [29] was 3.98 µM (≈ 12.5 µg/mL), the MIC [30] was 7.96 µM (≈ 25 µg/mL) and the MIC [31] was > 10.2 µM. For the same molecule, the MIC [32] was 1.91 µM (≈ 6 µg/mL) and the MIC [33] was 7.96 µM (≈ 25 µg/mL).

CC[C@H](C)[C@H](NC(=O)[C@H](CCCCN)NC(=O)[C@H](Cc1c[nH]c2ccccc12)NC(=O)[C@H](CCCN=C(N)N)NC(=O)[C@@H](N)CCCN=C(N)N)C(=O)N[C@H](C(=O)N[C@H](C(=O)N[C@H](C(=O)N[C@@H](CCCN=C(N)N)C(=O)N[C@@H](Cc1c[nH]c2ccccc12)C(=O)N[C@@H](CCCCN)C(=O)N[C@@H](CCCCN)C(N)=O)[C@@H](C)CC)C(C)C)C(C)C [RRWKIVVIRWKK] showed an MIC [34] of 1.2 µM (≈ 2 µg/mL).

For CC(C)C[C@H](NC(=O)CN)C(=O)N[C@@H](Cc1ccccc1)C(=O)N[C@@H](CC(=O)O)C(=O)N[C@H](C(=O)N[C@H](C(=O)N[C@@H](CCCCN)C(=O)NCC(=O)N[C@H](C(=O)N[C@@H](CC(C)C)C(=O)N[C@@H](CCCCN)C(=O)NCC(=O)N[C@H](C(=O)NCC(=O)N[C@@H](CCCCN)C(=O)N[C@@H](CC(N)=O)C(=O)N[C@H](C(=O)N[C@@H](C)C(=O)NCC(=O)N[C@@H](CO)C(=O)N[C@@H](CC(C)C)C(=O)N[C@@H](CC(C)C)C(=O)N[C@@H](CCC(=O)O)C(=O)N[C@@H](CCC(N)=O)C(=O)N[C@@H](CC(C)C)C(=O)N[C@@H](CCCCN)C(=O)N[C@H]1CSSC[C@@H](C(=O)O)NC(=O)CNC(=O)CNC(=O)[C@H](CO)NC(=O)[C@H](CC(C)C)NC(=O)[C@H](CCCCN)NC1=O)C(C)C)C(C)C)C(C)C)C(C)C)C(C)C [GLFDVVKGVLKGVGKNVAGSLLEQLKCKLSGGC], the MIC [35] was ≥ 37.5 µM, the MIC [36] was 15.1 µM (≈ 50 µg/mL) and the MIC [37] was 30.1 µM (≈ 99.9 µg/mL). The MIC [13] was 50 µM (≈ 166 µg/mL), the MIC [38] was ≥ 100 µM and the MIC [39] was 4.52 µM (≈ 15 µg/mL). For the same molecule, the MIC [40] was 4.52 µM (≈ 15 µg/mL), the MIC [41] was ≥ 37.5 µM and the MIC [42] was 1.88 µM (≈ 6.25 µg/mL). The MIC [43] was 30.1 µM (≈ 99.9 µg/mL), the MIC [44] was > 30.1 µM and the MIC [25] was > 100 µM. The MIC [45] was 18.1 µM (≈ 60 µg/mL), the MIC [46] was ≥ 37.5 µM and the MIC [47] was 9.04 µM (≈ 30 µg/mL). The MIC [32] was 18.1 µM (≈ 60 µg/mL).
